From publication PMC4613797 (Journal of medicinal chemistry, 2015)

Key:
vitamin D receptor (VDR) [1] = test: Lentiviral VDRE luciferase reporter assay in HaCaT cells; type: cell-based, human
Mouse CYP27B1 = biological target: T1, Mouse CYP27B1 (Mus musculus, UniProt O35084); test: Kinetics of 1α-hydroxylation; type: in vitro ADME; settings: for Km: 1α-hydroxylation by mouse CYP27B1, phospholipid vesicles, 2 min, ±SE of the curve fit
T1 sequence (O35084 1-507): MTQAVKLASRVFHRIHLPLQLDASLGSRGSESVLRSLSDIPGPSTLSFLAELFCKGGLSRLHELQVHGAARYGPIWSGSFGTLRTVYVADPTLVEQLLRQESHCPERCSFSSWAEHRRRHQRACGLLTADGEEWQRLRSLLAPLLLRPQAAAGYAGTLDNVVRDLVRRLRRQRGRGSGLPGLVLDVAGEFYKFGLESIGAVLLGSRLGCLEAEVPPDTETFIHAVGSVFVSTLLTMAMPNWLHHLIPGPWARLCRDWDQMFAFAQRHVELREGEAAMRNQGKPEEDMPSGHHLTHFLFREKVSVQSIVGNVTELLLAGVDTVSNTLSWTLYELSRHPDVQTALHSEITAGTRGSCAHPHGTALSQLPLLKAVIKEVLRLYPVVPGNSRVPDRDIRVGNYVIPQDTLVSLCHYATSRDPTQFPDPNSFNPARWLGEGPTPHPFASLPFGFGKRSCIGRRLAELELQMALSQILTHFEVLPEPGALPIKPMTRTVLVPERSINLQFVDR

vitamin D receptor (VDR) [2] = test: Lentiviral VDRE luciferase reporter assay in Caco-2 cells; type: cell-based
[3] = tested on: IFNγ production by mouse splenocytes; test: IFNγ inhibition assay in mouse splenocytes; type: cell-based; settings: 100 nM, versus control
SKMEL 188 melanoma cells = SKMEL 188 melanoma cells ref 6; cited from earlier work
[4] = mice, up to a dose of 60 µg/kg ref 18, 19; cited from earlier work
[5] = Homo sapiens, 24 h, read-out: VDRE activation (EC50, nM) HaCaT, HaCaT, VDRE-luciferase, 24 h
[6] = read-out: VDRE activation (EC50, nM) HaCaT, VDRE-luciferase, 24 h
[7] = Homo sapiens, Caco-2, 24 h, read-out: VDRE activation (EC50, nM) Caco-2, Caco-2, VDRE-luciferase, 24 h
[8] = read-out: VDRE activation (EC50, nM) Caco-2, Caco-2, VDRE-luciferase, 24 h

Structure (SMILES)	EC50 (vitamin D receptor (VDR) [1]; [5]) [nM]	EC50 (vitamin D receptor (VDR) [1]; [6]) [nM]	Km (Mouse CYP27B1)	EC50 (vitamin D receptor (VDR) [2]; [7]) [nM]	EC50 (vitamin D receptor (VDR) [2]; [8]) [nM]	effect on production of IFNγ by splenocytes (in words) [3]	kcat, fold higher than that for the 24S isomer (Mouse CYP27B1; mouse CYP27B1, versus 20S,24S(OH)2D3) [fold]	catalytic efficiency (kcat/Km), fold higher than 20S,24S(OH)2D3 (Mouse CYP27B1; mouse CYP27B1, versus 20S,24S(OH)2D3, listed as 20S,24R(OH)2D3) [fold]	inhibiting colony formation, potency compared with 1,25(OH)2D3 (SKMEL 188 melanoma cells)	calcemic activity [4]
C=C1CC[C@H](O)C/C1=C/C=C1\CCC[C@@]2(C)[C@H]1CC[C@@H]2[C@@](C)(O)CC[C@H](O)C(C)C [Compound 17b, 20S,24S-dihydroxyvitamin D3]	> 1000	> 1000	2.49 ± 0.59 (mmol of substrate)/(mol of phospholipid)	> 1000	> 1000	slightly increased production	–	–	–	–
C=C1CC[C@H](O)C/C1=C/C=C1\CCC[C@@]2(C)[C@H]1CC[C@@H]2[C@@](C)(O)CC[C@@H](O)C(C)C [Compound 17a, 20S,24R-dihydroxyvitamin D3]	> 1000	> 1000	7.99 ± 4.01 (mmol of substrate)/(mol of phospholipid)	> 1000	> 1000	–	18	5	more potent than 1,25(OH)2D3	–
C=C1CC[C@H](O)C/C1=C/C=C1\CCC[C@@]2(C)[C@H]1CC[C@@H]2[C@@](C)(O)CCCC(C)C [20S(OH)D3, 20S-hydroxyvitamin D3]	–	–	–	–	–	–	–	–	–	noncalcemic
